In patent US12240840B2, “Amide-substituted heterocyclic compounds for the treatment of conditions related to the modulation of IL-12, IL-23 and/or IFN-alpha” (BRISTOL-MYERS SQUIBB COMPANY, priority 2018, dated 2025):

System: IFNα-induced pSTAT5 (pY694) in CD3 positive cells of human whole blood
Assay: IFNα-Induced STAT Phosphorylation in Human Whole Blood
Type: cell-based
Conditions: Homo sapiens, 1 h compound incubation, 1000 U/mL recombinant human IFNα A/D for 15 min, pSTAT5 in CD3 positive population, read-out: Human WB IFNα-Induced Stat Phosph. (IC50)
In short: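 Read-out is median fluorescence intensity of pSTAT5 (pY694) in the CD3-positive gate, by flow cytometry after fix/lyse and permeabilization. Before that, whole human blood anticoagulated with EDTA or ACD-A received compound for an hour and 1000 U/mL IFNα A/D for 15 min.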

Compared with [2H]C([2H])([2H])NC(=O)c1nnc(NC(=O)C2CC2)cc1Nc1cccc(-c2ncc(C(=O)NCC(C)(C)CN(C)C)s2)c1OC [Example 339], [2H]C([2H])([2H])NC(=O)c1nnc(NC(=O)C2CC2)cc1Nc1cccc(-c2ncc(C(=O)NCC(C)CN(C)C)s2)c1OC (centres unmarked) [Example 352] is 1.8-fold higher in IC50: 0.04 µM for the first, 0.07 µM for the second.

[2H]C([2H])([2H])NC(=O)c1nnc(NC(=O)C2CC2)cc1Nc1cccc(-c2ncc(C(=O)NCCCN3CCCC3)s2)c1OC [Example 340] and [2H]C([2H])([2H])NC(=O)c1nnc(NC(=O)C2CC2)cc1Nc1cccc(-c2ncc(C(=O)NCCCN3CCN(C(C)C)CC3)s2)c1OC [Example 341] are within 1.5-fold of each other in IC50: 0.1 µM for the first, 0.11 µM for the second.

Compared with [2H]C([2H])([2H])NC(=O)c1nnc(NC(=O)C2CC2)cc1Nc1cccc(-c2ncc(C(=O)N3CCC(N4CCN(CCO)CC4)CC3)s2)c1OC [Example 342], [2H]C([2H])([2H])NC(=O)c1nnc(NC(=O)C2CC2)cc1Nc1cccc(-c2nc(C)c(C(=O)N3CCC(N4CCN(CCO)CC4)CC3)s2)c1OC [Example 359] is 4.2-fold higher in IC50: 0.08 µM for the first, 0.34 µM for the second.

Compared with [2H]C([2H])([2H])NC(=O)c1nnc(NC(=O)C2CC2)cc1Nc1cccc(-c2ncc(C(=O)N3CCC(N(CC)CC)CC3)s2)c1OC [Example 343], [2H]C([2H])([2H])NC(=O)c1nnc(NC(=O)C2CC2)cc1Nc1cccc(-c2ncc(C(=O)N3CCC(CCCO)CC3)s2)c1OC [Example 353] is 7.7-fold higher in IC50: 0.022 µM for the first, 0.17 µM for the second. The first is the more potent here.

Going from [2H]C([2H])([2H])NC(=O)c1nnc(NC(=O)C2CC2)cc1Nc1cccc(-c2ncc(C(=O)N3[C@@H]4CC[C@H]3CC(N(C)C)C4)s2)c1OC (some centres unmarked) [Example 344] to [2H]C([2H])([2H])NC(=O)c1nnc(NC(=O)C2CC2)cc1Nc1cccc(-c2nc(C)c(C(=O)N3CCC(N(C)C)CC3)s2)c1OC [Example 354], the IC50 rises from 0.03 µM to 0.08 µM (2.7-fold).

Compared with [2H]C([2H])([2H])NC(=O)c1nnc(NC(=O)C2CC2)cc1Nc1cccc(-c2ncc(C(=O)N3CC(CO)C3)s2)c1OC [Example 345], [2H]C([2H])([2H])NC(=O)c1nnc(NC(=O)C2CC2)cc1Nc1cccc(-c2ncc(C(=O)N3CC(C)(O)C3)s2)c1OC [Example 346] is 2-fold lower in IC50: 0.18 µM for the first, 0.09 µM for the second.

Compared with [2H]C([2H])([2H])NC(=O)c1nnc(NC(=O)C2CC2)cc1Nc1cccc(-c2ncc(C(=O)NCCN3CCCC(F)C3)s2)c1OC (centres unmarked) [Example 347], [2H]C([2H])([2H])NC(=O)c1nnc(NC(=O)C2CC2)cc1Nc1cccc(-c2ncc(C(=O)NCC(C)N3CCCCC3)s2)c1OC (centres unmarked) [Example 349] is 5.4-fold higher in IC50: 0.013 µM for the first, 0.07 µM for the second.

First: [2H]C([2H])([2H])NC(=O)c1nnc(NC(=O)C2CC2)cc1Nc1cccc(-c2ncc(C(=O)N3CCC(N4CCCC4)CC3)s2)c1OC [Example 350]
Second: [2H]C([2H])([2H])NC(=O)c1nnc(NC(=O)C2CC2)cc1Nc1cccc(-c2ncc(C(=O)N3CCC(N4CCCCC4)CC3)s2)c1OC [Example 351]
The IC50 of the first is 1.5-fold lower: 0.04 µM for the first, 0.06 µM for the second.

[2H]C([2H])([2H])NC(=O)c1nnc(NC(=O)C2CC2)cc1Nc1cccc(-c2nc(C)c(C(=O)NCCC3CCCN3C)s2)c1OC (centres unmarked) [Example 355] and [2H]C([2H])([2H])NC(=O)c1nnc(NC(=O)C2CC2)cc1Nc1cccc(-c2nc(C)c(C(=O)NCCOC)s2)c1OC [Example 366] are within 1.5-fold of each other in IC50: 0.38 µM for the first, 0.51 µM for the second.

Going from [2H]C([2H])([2H])NC(=O)c1nnc(NC(=O)C2CC2)cc1Nc1cccc(-c2nc(C)c(C(=O)N3CCOCC3)s2)c1OC [Example 356] to [2H]C([2H])([2H])NC(=O)c1nnc(NC(=O)C2CC2)cc1Nc1cccc(-c2nc(C)c(C(=O)N3CCC3)s2)c1OC [Example 358], the IC50 rises from 0.08 µM to 0.21 µM (2.6-fold). The first is the more potent here.

First: [2H]C([2H])([2H])NC(=O)c1nnc(NC(=O)C2CC2)cc1Nc1cccc(-c2nc(C)c(C(=O)NCCCN(C)C)s2)c1OC [Example 357]
Second: [2H]C([2H])([2H])NC(=O)c1nnc(NC(=O)C2CC2)cc1Nc1cccc(-c2nc(C)c(C(=O)NCC)s2)c1OC [Example 360]
The IC50 of the first is 3.3-fold higher: 0.88 µM for the first, 0.27 µM for the second. The second is the more potent here.

First: [2H]C([2H])([2H])NC(=O)c1nnc(NC(=O)C2CC2)cc1Nc1cccc(-c2nc(C)c(C(=O)N3CCC(N4CCCC4)CC3)s2)c1OC [Example 361]
Second: [2H]C([2H])([2H])NC(=O)c1nnc(NC(=O)C2CC2)cc1Nc1cccc(-c2nc(C)c(C(=O)N3CCC(CCN4CCCC4)CC3)s2)c1OC [Example 371]
The IC50 of the first is 1.6-fold lower: 0.19 µM for the first, 0.31 µM for the second. The first is the more potent here.

Compared with [2H]C([2H])([2H])NC(=O)c1nnc(NC(=O)C2CC2)cc1Nc1cccc(-c2nc(C)c(C(=O)N3C[C@@H](C)O[C@@H](C)C3)s2)c1OC [Example 362], [2H]C([2H])([2H])NC(=O)c1nnc(NC(=O)C2CC2)cc1Nc1cccc(-c2nc(C)c(C(=O)N(C)C)s2)c1OC [Example 367] is 4.5-fold lower in IC50: 0.27 µM for the first, 0.06 µM for the second.

Going from [2H]C([2H])([2H])NC(=O)c1nnc(NC(=O)C2CC2)cc1Nc1cccc(-c2nc(C)c(C(=O)N3CCNC(=O)C3)s2)c1OC [Example 363] to [2H]C([2H])([2H])NC(=O)c1nnc(NC(=O)C2CC2)cc1Nc1cccc(-c2nc(C)c(C(=O)N3CCS(=O)(=O)CC3)s2)c1OC [Example 372], the IC50 falls from 0.24 µM to 0.15 µM (1.6-fold). The second is the more potent here.

First: [2H]C([2H])([2H])NC(=O)c1nnc(NC(=O)C2CC2)cc1Nc1cccc(-c2nc(C)c(C(=O)NC(C)C)s2)c1OC [Example 364]
Second: [2H]C([2H])([2H])NC(=O)c1nnc(NC(=O)C2CC2)cc1Nc1cccc(-c2nc(C)c(C(=O)N(C)CC)s2)c1OC [Example 370]
The IC50 of the first is 2.8-fold higher: 0.44 µM for the first, 0.16 µM for the second. The second is the more potent here.

[2H]C([2H])([2H])NC(=O)c1nnc(NC(=O)C2CC2)cc1Nc1cccc(-c2nc(C)c(C(=O)NC3CCC(N(C)C)CC3)s2)c1OC (centres unmarked) [Example 365] and [2H]C([2H])([2H])NC(=O)c1nnc(NC(=O)C2CC2)cc1Nc1cccc(-c2nc(C)c(C(=O)NCC3CCN(C)C3)s2)c1OC (centres unmarked) [Example 368] are within 1.5-fold of each other in IC50: 0.32 µM for the first, 0.35 µM for the second.

Compared with [2H]C([2H])([2H])NC(=O)c1nnc(NC(=O)C2CC2)cc1Nc1cccc(-c2nc(C)c(C(=O)N3CCN(C(C)C)CC3)s2)c1OC [Example 369], [2H]C([2H])([2H])NC(=O)c1nnc(NC(=O)C2CC2)cc1Nc1cccc(-c2ncc(COCC)s2)c1OC [Example 394] is 8.4-fold higher in IC50: 0.05 µM for the first, 0.42 µM for the second. The first is the more potent here.

Going from COc1c(Nc2cc(N)nnc2C(N)=O)cccc1-c1ncc(C(=O)NCCC2CCCN2C)s1 (centres unmarked) [Example 377] to COc1c(Nc2cc(NC(=O)C3CC3)nnc2C(N)=O)cccc1-c1ncc(C(=O)NC(C)C)s1 [Example 404], the IC50 falls from 1.41 µM to 0.11 µM (13-fold).

First: [2H]C([2H])([2H])NC(=O)c1nnc(Nc2ccc(OC)nn2)cc1Nc1cccc(-c2nc(C(=O)N(C)C)cs2)c1OC [Example 379]
Second: [2H]C([2H])([2H])NC(=O)c1nnc(Nc2ccc(OC)nn2)cc1Nc1cccc(-c2ncc(CNC(C)=O)s2)c1OC [Example 387]
The IC50 of the first is 2.1-fold higher: 0.56 µM for the first, 0.27 µM for the second.

[2H]C([2H])([2H])NC(=O)c1nnc(Nc2cnn(C)n2)cc1Nc1cccc(-c2ncc(C(=O)N(C)C)s2)c1OC [Example 381] and [2H]C([2H])([2H])NC(=O)c1nnc(Nc2cnn(C)n2)cc1Nc1cccc(-c2ncc(C(C)O)s2)c1OC (centres unmarked) [Example 385] are within 1.5-fold of each other in IC50: 0.13 µM for the first, 0.18 µM for the second.

Going from [2H]C([2H])([2H])NC(=O)c1nnc(Nc2cc(C)n(C)n2)cc1Nc1cccc(-c2ncc(C(=O)N3CCS(=O)(=O)CC3)s2)c1OC [Example 382] to [2H]C([2H])([2H])NC(=O)c1nnc(Nc2ccc(C)nn2)cc1Nc1cccc(-c2ncc(C(=O)N3CCS(=O)(=O)CC3)s2)c1OC [Example 383], the IC50 falls from 0.1 µM to 0.03 µM (3.3-fold). The second is the more potent here.

Compared with [2H]C([2H])([2H])NC(=O)c1nnc(Nc2ccc(C)nn2)cc1Nc1cccc(-c2ncc(C(=O)N(C)C)s2)c1OC [Example 384], [2H]C([2H])([2H])NC(=O)c1nnc(Nc2ccc(C)nn2)cc1Nc1cccc(-c2ncc(C(C)O)s2)c1OC (centres unmarked) [Example 392] is 1.7-fold lower in IC50: 0.04 µM for the first, 0.023 µM for the second.

Going from [2H]C([2H])([2H])NC(=O)c1nnc(Nc2cnn(C)n2)cc1Nc1cccc(-c2ncc(CO)s2)c1OC [Example 386] to [2H]C([2H])([2H])NC(=O)c1nnc(Nc2ccc(C)nn2)cc1Nc1cccc(-c2ncc(CO)s2)c1OC [Example 393], the IC50 falls from 0.49 µM to 0.18 µM (2.7-fold).

First: [2H]C([2H])([2H])NC(=O)c1nnc(Nc2ccc(OC)nn2)cc1Nc1cccc(-c2ncc(CNC(=O)OC(C)(C)C)s2)c1OC [Example 388]
Second: [2H]C([2H])([2H])NC(=O)c1nnc(Nc2ccc(OC)nn2)cc1Nc1cccc(-c2ncc(CNC(=O)OC)s2)c1OC [Example 391]
The IC50 of the first is higher: over 10 µM for the first, 0.82 µM for the second.

Going from [2H]C([2H])([2H])NC(=O)c1nnc(Nc2ccc(OC)nn2)cc1Nc1cccc(-c2ncc(CN)s2)c1OC [Example 389] to [2H]C([2H])([2H])NC(=O)c1nnc(Nc2ccc(OC)nn2)cc1Nc1cccc(-c2ncc(CNS(C)(=O)=O)s2)c1OC [Example 390], the IC50 falls from 0.57 µM to 0.24 µM (2.4-fold). The second is the more potent here.

First: COc1c(Nc2cc(NC(=O)C3CC3)nnc2C(N)=O)cccc1-c1ncc(CN2CCN(S(C)(=O)=O)CC2)s1 [Example 395]
Second: COCCN1CCN(Cc2cnc(-c3cccc(Nc4cc(NC(=O)C5CC5)nnc4C(N)=O)c3OC)s2)CC1 [Example 399]
The IC50 of the first is 2.2-fold lower: 0.08 µM for the first, 0.18 µM for the second. The first is the more potent here.

COc1c(Nc2cc(NC(=O)C3CC3)nnc2C(N)=O)cccc1-c1ncc(C(=O)NC2CCCCC2)s1 [Example 396] and COc1c(Nc2cc(NC(=O)C3CC3)nnc2C(N)=O)cccc1-c1ncc(C(=O)NC2CCC(N(C)C)CC2)s1 (centres unmarked) [Example 405] are within 1.5-fold of each other in IC50: 0.12 µM for the first, 0.09 µM for the second.

CCN(CC)C1CCC(NC(=O)c2cnc(-c3cccc(Nc4cc(NC(=O)C5CC5)nnc4C(N)=O)c3OC)s2)CC1 (centres unmarked) [Example 397] and COc1c(Nc2cc(NC(=O)C3CC3)nnc2C(N)=O)cccc1-c1ncc(C(=O)N2CCC(CCO)CC2)s1 [Example 400] are within 1.5-fold of each other in IC50: 0.04 µM for the first, 0.03 µM for the second.

COc1c(Nc2cc(NC(=O)C3CC3)nnc2C(N)=O)cccc1-c1ncc(CN2CCOCC2)s1 [Example 401] and COc1c(Nc2cc(NC(=O)C3CC3)nnc2C(N)=O)cccc1-c1ncc(C(=O)N2CCCCC2)s1 [Example 403] are within 1.5-fold of each other in IC50: 0.18 µM for the first, 0.19 µM for the second.

For CCS(=O)(=O)N1CCN(C(=O)c2cnc(-c3cccc(Nc4cc(NC(=O)C5CC5)nnc4C(N)=O)c3OC)s2)CC1 [Example 402], the IC50 was 0.04 µM.
